# Test results as given in ChEMBL document CHEMBL3046027, “In vitro and in vivo antifungal activity of synthetic pure isothiocyanates against Sclerotinia sclerotiorum” (Pest Manag Sci, 2011).
# Legend:
# [1] = system: Sclerotinia sclerotiorum; assay: Antifungal activity against Sclerotinia sclerotiorum assessed as inhibition of mycelial growth in contact phase at 550 umol/l measured at 20 degC after 5 days; assay type: functional; conditions: 120 h, read-out: GI
# [2] = system: Sclerotinia sclerotiorum; assay: Antifungal activity against Sclerotinia sclerotiorum assessed as inhibition of germination in volatile phase at 79 umol/l measured at 20 degC after 5 days; assay type: functional; conditions: 120 h
# [3] = system: Sclerotinia sclerotiorum; assay: Antifungal activity against Sclerotinia sclerotiorum assessed as inhibition of mycelial growth in volatile phase at 39 umol/l measured at 20 degC after 5 days; assay type: functional; conditions: 120 h, read-out: GI
# [4] = system: Sclerotinia sclerotiorum; assay: Antifungal activity against Sclerotinia sclerotiorum assessed as inhibition of mycelial growth in contact phase at 1572 umol/l measured at 20 degC after 5 days; assay type: functional; conditions: 120 h, read-out: GI
# [5] = system: Sclerotinia sclerotiorum; assay: Fungistatic activity in Sclerotinia sclerotiorum assessed as inhibition of carpogenic germination in volatile phase at 393 umol/l measured at 20 degC after 5 days relative to control; assay type: functional; conditions: 120 h
# [6] = system: Sclerotinia sclerotiorum; assay: Antifungal activity against Sclerotinia sclerotiorum assessed as inhibition of mycelial growth in volatile phase at 550 umol/l measured at 20 degC after 5 days; assay type: functional; conditions: 120 h, read-out: GI
# [7] = system: Sclerotinia sclerotiorum; assay: Antifungal activity against Sclerotinia sclerotiorum assessed as inhibition of mycelial growth in contact phase at 2358 umol/l measured at 20 degC after 5 days; assay type: functional; conditions: 120 h, read-out: GI
# [8] = system: Sclerotinia sclerotiorum; assay: Antifungal activity against Sclerotinia sclerotiorum assessed as inhibition of mycelial growth in volatile phase at 79 umol/l measured at 20 degC after 5 days; assay type: functional; conditions: 120 h, read-out: GI
# [9] = system: Sclerotinia sclerotiorum; assay: Antifungal activity against Sclerotinia sclerotiorum assessed as inhibition of germination in volatile phase at 786 umol/l measured at 20 degC after 5 days; assay type: functional; conditions: 120 h
# [10] = system: Sclerotinia sclerotiorum; assay: Fungistatic activity in Sclerotinia sclerotiorum assessed as inhibition of mycelial growth in volatile phase at 550 umol/l measured at 20 degC after 5 days relative to control; assay type: functional; conditions: 120 h, read-out: GI
# [11] = system: Sclerotinia sclerotiorum; assay: Antifungal activity against Sclerotinia sclerotiorum assessed as inhibition of mycelial growth in contact phase at 786 umol/l measured at 20 degC after 5 days; assay type: functional; conditions: 120 h, read-out: GI
# [12] = system: Sclerotinia sclerotiorum; assay: Fungistatic activity in Sclerotinia sclerotiorum assessed as inhibition of mycelial growth in contact phase at 2358 umol/l measured at 20 degC after 5 days relative to control; assay type: functional; conditions: 120 h, read-out: GI
# [13] = system: Sclerotinia sclerotiorum; assay: In vivo antifungal Sclerotinia sclerotiorum in Pepper (Capsicum annuum L. cv. Sera Demre) assessed as inhibition of mycelial growth in volatile phase at 158 umol/L measured after 10 to 14 weeks; assay type: functional
# [14] = system: Sclerotinia sclerotiorum; assay: In vivo antifungal Sclerotinia sclerotiorum in Pepper (Capsicum annuum L. cv. Sera Demre) assessed as inhibition of mycelial growth in volatile phase at 79 umol/L measured after 10 to 14 weeks; assay type: functional
# [15] = system: Sclerotinia sclerotiorum; assay: Antifungal activity against Sclerotinia sclerotiorum assessed as inhibition of mycelial growth in contact phase at 708 umol/l measured at 20 degC after 5 days; assay type: functional; conditions: 120 h, read-out: GI
# [16] = system: Sclerotinia sclerotiorum; assay: Antifungal activity against Sclerotinia sclerotiorum assessed as inhibition of mycelial growth in volatile phase at 393 umol/l measured at 20 degC after 5 days; assay type: functional; conditions: 120 h, read-out: GI
# [17] = system: Sclerotinia sclerotiorum; assay: Antifungal activity against Sclerotinia sclerotiorum assessed as inhibition of germination in volatile phase at 39 umol/l measured at 20 degC after 5 days; assay type: functional; conditions: 120 h
# [18] = system: Sclerotinia sclerotiorum; assay: Fungistatic activity in Sclerotinia sclerotiorum assessed as inhibition of mycelial growth in contact phase measured at 20 degC after 5 days; assay type: functional, organism-based; conditions: 120 h
# [19] = system: Sclerotinia sclerotiorum; assay: Fungistatic activity in Sclerotinia sclerotiorum assessed as inhibition of carpogenic germination in volatile phase at 79 umol/l measured at 20 degC after 5 days relative to control; assay type: functional; conditions: 120 h
# [20] = system: Sclerotinia sclerotiorum; assay: Antifungal activity against Sclerotinia sclerotiorum assessed as inhibition of germination in volatile phase at 236 umol/l measured at 20 degC after 5 days; assay type: functional; conditions: 120 h
# [21] = system: Sclerotinia sclerotiorum; assay: Antifungal activity against Sclerotinia sclerotiorum assessed as inhibition of germination in volatile phase at 393 umol/l measured at 20 degC after 5 days; assay type: functional; conditions: 120 h
# [22] = system: Sclerotinia sclerotiorum; assay: Fungistatic activity in Sclerotinia sclerotiorum assessed as inhibition of carpogenic germination in volatile phase at 786 umol/l measured at 20 degC after 5 days relative to control; assay type: functional; conditions: 120 h
# [23] = system: Sclerotinia sclerotiorum; assay: Fungistatic activity in Sclerotinia sclerotiorum assessed as inhibition of mycelial growth in volatile phase measured at 20 degC after 5 days; assay type: functional, organism-based; conditions: 120 h
# [24] = system: Sclerotinia sclerotiorum; assay: Fungistatic activity in Sclerotinia sclerotiorum assessed as viability in volatile phase at 786 umol/l measured at 20 degC after 5 days relative to control; assay type: functional; conditions: 120 h, read-out: GI
# [25] = system: Sclerotinia sclerotiorum; assay: Fungistatic activity in Sclerotinia sclerotiorum assessed as sclerotial viability measured at 20 degC after 5 days; assay type: functional, organism-based; conditions: 120 h
# [26] = system: Sclerotinia sclerotiorum; assay: Antifungal activity against Sclerotinia sclerotiorum assessed as inhibition of mycelial growth in volatile phase at 786 umol/l measured at 20 degC after 5 days; assay type: functional; conditions: 120 h, read-out: GI
smiles,measurement,setting,value
CCN=C=S [ETHYL ISOTHIOCYANATE],inhibition of growth at 550 µM,[1],34.2%
same,inhibition at 79 µM,[2],26.7%
same,inhibition of growth at 39 µM,[3],5%
same,inhibition of growth at 1572 µM,[4],81.5%
same,inhibition at 393 µM,[5],62.5%
same,inhibition of growth at 550 µM,[6],100%
same,inhibition of growth at 2358 µM,[7],100%
same,inhibition of growth at 79 µM,[8],30.8%
same,inhibition at 786 µM,[9],100%
same,inhibition of growth at 550 µM,[10],100%
same,inhibition of growth at 786 µM,[11],69.5%
same,inhibition of growth at 2358 µM,[12],100%
same,inhibition in vivo at 158 µM,[13],70%
same,inhibition in vivo at 79 µM,[14],38.3%
same,inhibition of growth at 708 µM,[15],56.2%
same,inhibition of growth at 393 µM,[16],56%
same,inhibition at 39 µM,[17],0%
same,EC50,[18],653 µM
same,inhibition at 79 µM,[19],52.5%
same,inhibition at 236 µM,[20],46.7%
same,inhibition at 393 µM,[21],66.7%
same,inhibition at 786 µM,[22],87.5%
same,EC50,[23],157 µM
same,inhibition of growth at 786 µM,[24],100%
same,EC50,[25],212 µM
same,inhibition of growth at 786 µM,[26],100%
